IC50 data for ten molecules are collected here from US5510331A, “Antihypertensive peptides” (Roussel UCLAF, priority 1990, dated 1996).

Where a SMILES comes first, the peptide text is derived from it. Bridges are numbered along the chain shown (N, C = ends). [ ]: non-standard residue; d: D form. d2Nal = N[C@H](Cc1ccc2ccccc2c1)C(=O)O; Nle = CCCC[C@H](N)C(=O)O

This test concerns the target endotheline receptor. The test is described as follows: Activity on the endotheline receptor: displacement of 125I endotheline from rat brain membrane preparation. The conditions noted are these: membrane preparation from rat posterior cortex and brain, 25° C., 60 minutes, 7 concentrations, read-out: IC50 (50% inhibiting concentration; concentration necessary to displace 50% of the specific radioactivity fixed on the receptor). The test is classed as binding. Here is the method:
A membrane preparation was made from rat posterior cortex and brain and the tissue was ground with a POLYTRON in a 50 mM Tris buffer pH=7.4. After 30 minutes at 25° C. (W.B.), the homogenate was centrifuged at 30,000 g for 15 minutes (2 centrifugations with intermediate taking up in the Tris buffer pH 7.4). The deposits were suspended in an incubation buffer (Tris 25 mM, pepstatine A 5 microg/ml, aprotinine 3 microg/ml, PMSF 0.1 mM, EDTA 3 mM, EGTA 1 mM pH 7.4). 2 ml aliquots were distributed in hemolysis tubes and ^125 I endotheline (approximately 50,000 dpm/tube) and the product to be studied were added. The product was first tested at 3×10^-5 M in triplicate. When the product tested displaced more than 50% of radioactivity linked specifically to the receptor, it was tested again in a range of 7 concentrations to determine the concentration which inhibited the radioactivity linked specifically to the receptor by 50%. In this way, the 50% inhibiting concentration was determined.
The non-specific bond was determined by the addition of endotheline at 10^-6 M (in triplicate) and the deposits were incubated at 25° C. for 60 minutes, put in a water-bath at 0° C. for 5 minutes, filtered under reduced pressure and rinsed with a Tris buffer 7.4 pH. The radioactivity was counted in the presence of scintillating Triton. The result was expressed directly as a 50% inhibiting concentration (IC50), or the concentration of product studied expressed in nM necessary to displace 50% of the specific radioactivity fixed on the receptor studied.
On the technique in general: In a radioligand displacement assay an active substance lowers the binding of a labelled ligand.
In the case of `CC[C@H](C)[C@H](NC(=O)[C@H](CC(=O)O)NC(=O)[C@H](CC(C)C)NC(=O)[C@H](Cc1c[nH]cn1)NC(=O)[C@@H]1CSSC[C@H](N)C(=O)N[C@@H](CO)C(=O)N[C@H]2CSSC[C@H](NC(=O)[C@H](CCC(=O)O)NC(=O)[C@H](CCCCN)NC(=O)[C@H](CC(=O)O)NC(=O)CNC(=O)[C@H](CC(C)C)NC(=O)[C@H](CO)NC(=O)[C@H](CO)NC2=O)C(=O)N[C@@H](C(C)C)C(=O)N[C@@H](Cc2ccc(O)cc2)C(=O)N[C@@H](Cc2ccccc2)C(=O)N1)C(=O)N[C@H](C(=O)N[C@@H](Cc1c[nH]c2ccccc12)C(=O)O)[C@@H](C)CC` [Example 2, (Gly-7)--ET1 derivative] (H-CSCSSLGDKECVYFCHLDIIW-OH; disulfide 1-15, 3-11), the IC50 amounted to 1.4 nM.

On to `CCCC[C@@H]1NC(=O)[C@H](CC(C)C)NC(=O)[C@H](CO)NC(=O)[C@H](CO)NC(=O)[C@@H]2CSSC[C@H](NC(=O)[C@H](CCC(=O)O)NC(=O)[C@H](CCCCN)NC(=O)[C@H](CC(=O)O)NC1=O)C(=O)N[C@@H](C(C)C)C(=O)N[C@@H](Cc1ccc(O)cc1)C(=O)N[C@@H](Cc1ccccc1)C(=O)N[C@H](C(=O)N[C@@H](Cc1c[nH]cn1)C(=O)N[C@@H](CC(C)C)C(=O)N[C@@H](CC(=O)O)C(=O)N[C@H](C(=O)N[C@H](C(=O)N[C@H](Cc1ccc3ccccc3c1)C(=O)O)[C@@H](C)CC)[C@@H](C)CC)CSSC[C@H](N)C(=O)N[C@@H](CO)C(=O)N2` [Example 3, (Nle-7)-DiNaphtylalanine-21-ET1 derivative] (H-CSCSSL[Nle]DKECVYFCHLDII[d2Nal]-OH; disulfide 1-15, 3-11), for which the IC50 turned out to be 2 nM.

Turning to `CCCC[C@@H]1NC(=O)[C@H](CC(C)C)NC(=O)[C@H](CO)NC(=O)[C@H](CO)NC(=O)[C@@H](N)CSSC[C@@H](C(=O)N[C@@H](Cc2c[nH]cn2)C(=O)N[C@@H](CC(C)C)C(=O)N[C@@H](CC(=O)O)C(=O)N[C@H](C(=O)N[C@H](C(=O)N[C@@H](Cc2c[nH]c3ccccc23)C(=O)O)[C@@H](C)CC)[C@@H](C)CC)NC(=O)[C@H](CCC(=O)O)NC(=O)[C@H](CCCCN)NC(=O)[C@H](CC(=O)O)NC1=O` [Example 7] (H-CSSL[Nle]DKECHLDIIW-OH; disulfide 1-9), the IC50 turned out to be 3520 nM.

`CCCC[C@H](NC(=O)[C@H](CC(C)C)NC(=O)[C@H](CO)NC(=O)[C@H](CO)NC(=O)[C@@H](N)CS)C(=O)N[C@@H](CC(=O)O)C(=O)N[C@@H](CCCCN)C(=O)N[C@@H](CCC(=O)O)C(=O)N[C@@H](CS)C(=O)N[C@@H](Cc1c[nH]cn1)C(=O)N[C@@H](CC(C)C)C(=O)N[C@@H](CC(=O)O)C(=O)N[C@H](C(=O)N[C@H](C(=O)N[C@@H](Cc1c[nH]c2ccccc12)C(=O)O)[C@@H](C)CC)[C@@H](C)CC` [Example 8] (H-CSSL[Nle]DKECHLDIIW-OH): the IC50 amounted to 5350 nM.

As to `CC[C@H](C)[C@H](NC(=O)[C@H](CC(=O)O)NC(=O)[C@H](CC(C)C)NC(=O)[C@H](Cc1c[nH]cn1)NC(=O)[C@@H]1CSSC[C@H](N)C(=O)N[C@@H](CC(C)C)C(=O)N[C@@H](C)C(=O)NCC(=O)N2CCC[C@H]2C(=O)N[C@@H](CC(N)=O)C(=O)NCC(=O)N[C@@H](Cc2ccc(O)cc2)C(=O)N1)C(=O)N[C@H](C(=O)N[C@@H](Cc1c[nH]c2ccccc12)C(=O)O)[C@@H](C)CC` [Example 9] (H-CLAGPNGYCHLDIIW-OH; disulfide 1-9), the IC50 turned out to be 7500 nM.

Regarding `CC[C@H](C)[C@H](NC(=O)[C@H](CC(=O)O)NC(=O)[C@H](CC(C)C)NC(=O)[C@H](Cc1c[nH]cn1)NC(=O)[C@H](CS)NC(=O)[C@H](Cc1ccc(O)cc1)NC(=O)CNC(=O)[C@H](CC(N)=O)NC(=O)[C@@H]1CCCN1C(=O)CNC(=O)[C@H](C)NC(=O)[C@H](CC(C)C)NC(=O)[C@@H](N)CS)C(=O)N[C@H](C(=O)N[C@@H](Cc1c[nH]c2ccccc12)C(=O)O)[C@@H](C)CC` [Example 10] (H-CLAGPNGYCHLDIIW-OH), the IC50 worked out at 620 nM.

With `CC[C@H](C)[C@H](NC(=O)[C@H](CC(=O)O)NC(=O)[C@H](CC(C)C)NC(=O)[C@H](Cc1c[nH]cn1)NC(=O)[C@@H]1CSSC[C@H](N)C(=O)N[C@@H]([C@@H](C)O)C(=O)N[C@H]2CSSC[C@H](NC(=O)[C@H](CCC(=O)O)NC(=O)[C@H](CCCCN)NC(=O)[C@H](CC(=O)O)NC(=O)[C@H]([C@@H](C)O)NC(=O)[C@H](CCSC)NC(=O)[C@H](CC(=O)O)NC(=O)[C@H](CCCCN)NC2=O)C(=O)N[C@@H](C(C)C)C(=O)N[C@@H](Cc2ccc(O)cc2)C(=O)N[C@@H](Cc2ccccc2)C(=O)N1)C(=O)N[C@H](C(=O)N[C@@H](Cc1c[nH]c2ccccc12)C(=O)O)[C@@H](C)CC` [Example 11] (H-CTCKDMTDKECVYFCHLDIIW-OH; disulfide 1-15, 3-11), the IC50 came to 1.3 nM.

As for `CCCC[C@@H]1NC(=O)[C@H](CC(C)C)NC(=O)[C@H](CO)NC(=O)[C@H](CO)NC(=O)[C@@H]2CSSC[C@H](NC(=O)[C@H](CCC(=O)O)NC(=O)[C@H](CCCCN)NC(=O)[C@H](CC(=O)O)NC1=O)C(=O)N[C@@H](C(C)C)C(=O)N[C@@H](Cc1ccc(O)cc1)C(=O)N[C@@H](Cc1ccccc1)C(=O)N[C@H](C(=O)N[C@@H](Cc1c[nH]cn1)C(=O)N[C@@H](CCC(N)=O)C(=O)N[C@@H](CC(=O)O)C(=O)N[C@H](C(=O)N[C@H](C(=O)N[C@@H](Cc1c[nH]c3ccccc13)C(=O)O)[C@@H](C)CC)[C@@H](C)CC)CSSC[C@H](N)C(=O)N[C@@H](CO)C(=O)N2` [Example 12] (H-CSCSSL[Nle]DKECVYFCHQDIIW-OH; disulfide 1-15, 3-11), the IC50 came out at 2.3 nM.

Turning to `CC[C@H](C)[C@H](NC(=O)[C@H](CC(=O)O)NC(=O)[C@H](CCC(N)=O)NC(=O)[C@H](Cc1c[nH]cn1)NC(=O)[C@@H]1CSSC[C@H](N)C(=O)N[C@@H](CO)C(=O)N[C@H]2CSSC[C@H](NC(=O)[C@H](CCC(=O)O)NC(=O)[C@H](CCCCN)NC(=O)[C@H](CC(=O)O)NC(=O)[C@H](CCSC)NC(=O)[C@H](CC(C)C)NC(=O)[C@H](CO)NC(=O)[C@H](CO)NC2=O)C(=O)N[C@@H](CC(C)C)C(=O)N[C@@H](Cc2ccc(O)cc2)C(=O)N[C@@H](Cc2ccccc2)C(=O)N1)C(=O)N[C@H](C(=O)N[C@@H](Cc1c[nH]c2ccccc12)C(=O)O)[C@@H](C)CC` [Example 13] (H-CSCSSLMDKECLYFCHQDIIW-OH; disulfide 1-15, 3-11), the IC50 was 3.5 nM.

In the case of `CC[C@H](C)[C@H](NC(=O)[C@H](CC(=O)O)NC(=O)[C@H](CCCNC(=N)N)NC(=O)[C@H](Cc1c[nH]cn1)NC(=O)[C@@H]1CSSC[C@H](N)C(=O)N[C@@H]([C@@H](C)O)C(=O)N[C@H]2CSSC[C@H](NC(=O)[C@H](CCC(=O)O)NC(=O)[C@H](CCCCN)NC(=O)[C@H](CC(=O)O)NC(=O)[C@H]([C@@H](C)O)NC(=O)[C@H](CCSC)NC(=O)[C@H](CC(=O)O)NC(=O)[C@H](CCCCN)NC2=O)C(=O)N[C@@H](CC(C)C)C(=O)N[C@@H](Cc2ccc(O)cc2)C(=O)N[C@@H](Cc2ccccc2)C(=O)N1)C(=O)N[C@H](C(=O)N[C@@H](Cc1c[nH]c2ccccc12)C(=O)O)[C@@H](C)CC` [Example 15] (H-CTCKDMTDKECLYFCHRDIIW-OH; disulfide 1-15, 3-11 (inferred); N-terminus assumed), the IC50 was 1.8 nM.
